In patent US9546164B2 (GENENTECH, INC., priority 2013, dated 2017):
Counter-ions that a name gives are not always drawn.

Molecular target: hNav1.7 (Homo sapiens (Human), UniProt Q15858)
Assay: Tritiated sulfonamide competitive binding to membranes from cells expressing hNav1.7 and the β1 subunit;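 also: Filter-bound radioactivity counted by liquid scintillation, nonspecific binding defined with excess unlabelled ligand, IC50 fitted to percent inhibition of specific binding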
Settings: not given

Chain of hNav1.7 (Q15858 other isoform, or with tags, fused parts or gaps): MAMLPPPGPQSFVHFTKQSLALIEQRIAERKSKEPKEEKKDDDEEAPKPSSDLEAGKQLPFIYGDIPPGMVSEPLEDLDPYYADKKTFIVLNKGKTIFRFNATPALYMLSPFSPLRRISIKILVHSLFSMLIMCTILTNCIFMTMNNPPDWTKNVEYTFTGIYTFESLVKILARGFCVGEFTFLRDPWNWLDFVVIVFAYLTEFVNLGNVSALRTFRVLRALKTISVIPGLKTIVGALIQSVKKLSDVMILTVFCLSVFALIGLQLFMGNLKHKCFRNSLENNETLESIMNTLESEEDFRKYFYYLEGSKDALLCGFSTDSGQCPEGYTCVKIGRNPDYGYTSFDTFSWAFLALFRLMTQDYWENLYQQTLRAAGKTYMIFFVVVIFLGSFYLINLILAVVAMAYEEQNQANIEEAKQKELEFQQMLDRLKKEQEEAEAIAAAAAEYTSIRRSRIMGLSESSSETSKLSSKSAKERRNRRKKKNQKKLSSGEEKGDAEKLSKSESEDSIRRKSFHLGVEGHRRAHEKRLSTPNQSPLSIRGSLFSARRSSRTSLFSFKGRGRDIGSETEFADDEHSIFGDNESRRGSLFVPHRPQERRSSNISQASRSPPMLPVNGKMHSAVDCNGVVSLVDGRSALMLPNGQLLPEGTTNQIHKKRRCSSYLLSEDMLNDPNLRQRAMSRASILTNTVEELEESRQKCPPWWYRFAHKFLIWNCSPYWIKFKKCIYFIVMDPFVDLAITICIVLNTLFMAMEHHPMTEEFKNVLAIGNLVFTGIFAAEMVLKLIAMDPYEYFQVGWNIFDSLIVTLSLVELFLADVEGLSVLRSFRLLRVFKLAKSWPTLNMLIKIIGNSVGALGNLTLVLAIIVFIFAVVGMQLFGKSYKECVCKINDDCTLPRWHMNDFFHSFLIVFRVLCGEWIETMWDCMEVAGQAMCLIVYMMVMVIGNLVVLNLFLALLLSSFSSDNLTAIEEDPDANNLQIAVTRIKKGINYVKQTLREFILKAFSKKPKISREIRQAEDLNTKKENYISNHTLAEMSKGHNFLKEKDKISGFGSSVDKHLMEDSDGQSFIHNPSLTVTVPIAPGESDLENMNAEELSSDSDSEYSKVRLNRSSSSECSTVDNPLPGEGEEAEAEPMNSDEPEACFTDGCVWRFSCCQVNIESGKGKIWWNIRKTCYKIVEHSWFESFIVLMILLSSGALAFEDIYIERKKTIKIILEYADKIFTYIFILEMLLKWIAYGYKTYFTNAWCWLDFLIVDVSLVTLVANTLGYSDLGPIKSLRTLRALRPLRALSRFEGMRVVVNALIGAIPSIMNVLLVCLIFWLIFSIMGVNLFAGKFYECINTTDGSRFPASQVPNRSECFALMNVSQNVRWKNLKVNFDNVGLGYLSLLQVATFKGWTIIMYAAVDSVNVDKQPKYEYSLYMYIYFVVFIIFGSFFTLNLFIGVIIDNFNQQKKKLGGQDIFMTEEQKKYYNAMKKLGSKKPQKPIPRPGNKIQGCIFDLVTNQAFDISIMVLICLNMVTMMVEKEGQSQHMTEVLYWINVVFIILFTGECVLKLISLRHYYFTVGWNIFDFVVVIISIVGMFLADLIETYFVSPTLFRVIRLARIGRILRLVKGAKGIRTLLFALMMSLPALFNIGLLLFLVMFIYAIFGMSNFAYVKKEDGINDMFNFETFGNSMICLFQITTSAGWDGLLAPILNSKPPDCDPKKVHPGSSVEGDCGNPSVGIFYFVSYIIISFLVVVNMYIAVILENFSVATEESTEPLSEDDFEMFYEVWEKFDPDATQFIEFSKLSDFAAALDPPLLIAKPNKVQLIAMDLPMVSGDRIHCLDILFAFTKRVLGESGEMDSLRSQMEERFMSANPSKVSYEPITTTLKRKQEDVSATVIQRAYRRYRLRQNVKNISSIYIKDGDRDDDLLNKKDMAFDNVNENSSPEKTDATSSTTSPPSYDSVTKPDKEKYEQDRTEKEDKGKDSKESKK
Chain of hNav1.7 (Q07699 19-218 partner): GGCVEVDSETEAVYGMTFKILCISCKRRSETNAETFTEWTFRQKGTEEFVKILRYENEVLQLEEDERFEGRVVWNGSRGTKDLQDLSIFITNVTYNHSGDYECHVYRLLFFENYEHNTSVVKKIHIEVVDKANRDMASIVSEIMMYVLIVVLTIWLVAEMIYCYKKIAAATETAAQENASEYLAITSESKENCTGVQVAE

SMILES	IC50 [nM]
O=C(NS(=O)(=O)C1CC1)c1cc(C2CC2)c(CN2CCC(Oc3ccc(C(F)(F)F)cc3)CC2)cc1F [Example 500, 5-cyclopropyl-N-(cyclopropylsulfonyl)-2-fluoro-4-((4-(4-(trifluoromethyl)phenoxy)piperidin-1-yl)methyl)benzamide]	7.8
CS(=O)(=O)NC(=O)c1cc(C2CC2)c(CN2CCC(Oc3ccc(Cl)c(Cl)c3)CC2)cc1F [Example 509, 5-cyclopropyl-4-((4-(3,4-dichlorophenoxy)piperidin-1-yl)methyl)-2-fluoro-N-(methylsulfonyl)benzamide, trifluoroacetic acid salt)]	13.1
O=C(NS(=O)(=O)C1CC1)c1cc(C2CC2)c(CN2CCC(Oc3ccc(Cl)c(Cl)c3)CC2)cc1F [Example 510, 5-cyclopropyl-N-(cyclopropylsulfonyl)-4-((4-(3,4-dichlorophenoxy)piperidin-1-yl)methyl)-2-fluorobenzamide, trifluoroacetic acid salt]	9.1

The remaining lines, values ahead:

IC50 [nM]	SMILES
14.3	CS(=O)(=O)NC(=O)c1cc(C2CC2)c(CN2CCC(Oc3ccccc3C(F)(F)F)CC2)cc1F [Example 497, 5-cyclopropyl-2-fluoro-N-(methylsulfonyl)-4-((4-(2-(trifluoromethyl)phenoxy)piperidin-1-yl)methyl)benzamide]
87.4	O=C(NS(=O)(=O)C1CC1)c1cc(C2CC2)c(CN2CCC(Oc3ccccc3C(F)(F)F)CC2)cc1F [Example 498, 5-cyclopropyl-N-(cyclopropylsulfonyl)-2-fluoro-4-((4-(2-(trifluoromethyl)phenoxy)piperidin-1-yl)methyl)benzamide]
13.6	CS(=O)(=O)NC(=O)c1cc(C2CC2)c(CN2CCC(Oc3ccc(C(F)(F)F)cc3)CC2)cc1F [Example 499, 5-cyclopropyl-2-fluoro-N-(methylsulfonyl)-4-((4-(4-(trifluoromethyl)phenoxy)piperidin-1-yl)methyl)benzamide]
13.4	CS(=O)(=O)NC(=O)c1cc(C2CC2)c(CN2CCC(Oc3cccc(C(F)(F)F)c3)CC2)cc1F [Example 501, 5-cyclopropyl-2-fluoro-N-(methylsulfonyl)-4-((4-(3-(trifluoromethyl)phenoxy)piperidin-1-yl)methyl)benzamide, trifluoroacetic acid salt]
44	O=C(NS(=O)(=O)C1CC1)c1cc(C2CC2)c(CN2CCC(Oc3ccc(F)cc3)CC2)cc1F [Example 508, 5-cyclopropyl-N-(cyclopropylsulfonyl)-2-fluoro-4-((4-(4-fluorophenoxy)piperidin-1-yl)methyl)benzamide, trifluoroacetic acid salt]
23.5	CS(=O)(=O)NC(=O)c1cc(C2CC2)c(CN2CCC(OCc3cc(Cl)cc(Cl)c3)CC2)cc1F [Example 511, 5-cyclopropyl-4-((4-((3,5-dichlorobenzyl)oxy)piperidin-1-yl)methyl)-2-fluoro-N-(methylsulfonyl)benzamide, trifluoroacetic acid salt]

Same assay, conditions: read-out: Ligand Binding Assay; 100 pM [3H]compound, membranes with hNav1.7 and β1 subunit, 18 h, room temperature

SMILES	IC50 [nM]
CS(=O)(=O)NC(=O)c1cc(C2CC2)c(CN2CCC(Oc3ccc(C(F)(F)F)cn3)CC2)cc1F [Example 476, 5-cyclopropyl-2-fluoro-N-(methylsulfonyl)-4-((4-((5-trifluoromethyl)pyridin-2-yl)oxypiperidin-1-yl)methyl)benzamide, trifluoroacetic acid salt]	37.2
CS(=O)(=O)NC(=O)c1cc(C2CC2)c(CN2CCC(OCc3ccc(F)cc3Cl)CC2)cc1F [Example 478, 4-((4-((2-chloro-4-fluorobenzyl)oxy)piperidin-1-yl)methyl)-5-cyclopropyl-2-fluoro-N-(methylsulfonyl)benzamide, trifluoroacetic acid salt]	38.1
O=C(NS(=O)(=O)N1CCC1)c1cc(C2CC2)c(CN2CCC(OCc3ccc(F)cc3Cl)CC2)cc1F [Example 479, N-(azetidin-1-ylsulfonyl)-4-((4-((2-chloro-4-fluorobenzyl)oxy)piperidin-1-yl)methyl)-5-cyclopropyl-2-fluorobenzamide, trifluoroacetic acid salt]	55.3
O=C(NS(=O)(=O)C1CC1)c1cc(C2CC2)c(CN2CCC(OCc3ccc(F)cc3Cl)CC2)cc1F [Example 480, 4-((4-((2-chloro-4-fluorobenzyl)oxy)piperidin-1-yl)methyl)-5-cyclopropyl-N-(cyclopropylsulfonyl)-2-fluorobenzamide, trifluoroacetic acid salt]	21.8
CC1(COc2cc(F)c(C(=O)NS(=O)(=O)C3CC3)cc2C2CC2)CN(c2ncc(C(F)(F)F)cc2Cl)C1 [Example 481, 4-((1-(3-chloro-5-(trifluoromethyl)pyridin-2-yl)-3-methylazetidin-3-yl)methoxy)-5-cyclopropyl-N-(cyclopropylsulfonyl)-2-fluorobenzamide]	3.1
CCS(=O)(=O)NC(=O)c1cc(C2CC2)c(OCC2(C)CN(c3ncc(C(F)(F)F)cc3Cl)C2)cc1F [Example 482, 4-((1-(3-chloro-5-(trifluoromethyl)pyridin-2-yl)-3-methylazetidin-3-yl)methoxy)-5-cyclopropyl-N-(ethylsulfonyl)-2-fluorobenzamide]	3.3
CC1(COc2cc(F)c(C(=O)NS(=O)(=O)C3CC3)cc2C2CC2)CN(c2ncc(Cl)cc2F)C1 [Example 483, 4-((1-(5-chloro-3-fluoropyridin-2-yl)-3-methylazetidin-3-yl)methoxy)-5-cyclopropyl-N-(cyclopropylsulfonyl)-2-fluorobenzamide]	5.2
CCS(=O)(=O)NC(=O)c1cc(C2CC2)c(OCC2(C)CN(c3ncc(Cl)cc3F)C2)cc1F [Example 484, 4-((1-(5-chloro-3-fluoropyridin-2-yl)-3-methylazetidin-3-yl)methoxy)-5-cyclopropyl-N-(ethylsulfonyl)-2-fluorobenzamide]	9.2
CC1(COc2cc(F)c(C(=O)NS(=O)(=O)C3CC3)cc2C2CC2)CN(c2ccc(Cl)c(C(F)(F)F)n2)C1 [Example 485, 4-((1-(5-chloro-6-(trifluoromethyl)pyridin-2-yl)-3-methylazetidin-3-yl)methoxy)-5-cyclopropyl-N-(cyclopropylsulfonyl)-2-fluorobenzamide]	4.5
CC1(COc2cc(F)c(C(=O)NS(=O)(=O)C3CC3)cc2C2CC2)CN(c2cc(Cl)c(C(F)(F)F)cn2)C1 [Example 486, 4-((1-(4-chloro-5-(trifluoromethyl)pyridin-2-yl)-3-methylazetidin-3-yl)methoxy)-5-cyclopropyl-N-(cyclopropylsulfonyl)-2-fluorobenzamide, trifluoroacetic acid salt]	5.6
CC1(COc2cc(F)c(C(=O)NS(=O)(=O)C3CC3)cc2C2CC2)CN(c2cc(Cl)ncc2C(F)(F)F)C1 [Example 487, 4-((1-(2-chloro-5-(trifluoromethyl)pyridin-4-yl)-3-methylazetidin-3-yl)methoxy)-5-cyclopropyl-N-(cyclopropylsulfonyl)-2-fluorobenzamide, trifluoroacetic acid salt]	13.5
CC1(COc2cc(F)c(C(=O)NS(=O)(=O)C3CC3)cc2C2CC2)CN(c2ccc(C(F)(F)F)cn2)C1 [Example 488, 5-cyclopropyl-N-(cyclopropylsulfonyl)-2-fluoro-4-((3-methyl-1-(5-(trifluoromethyl)pyridin-2-yl)azetidin-2-3-yl)methoxy)benzamide, trifluoroacetic acid salt]	9.2
CC1(COc2cc(F)c(C(=O)NS(=O)(=O)C3CC3)cc2C2CC2)CN(c2ccncc2C(F)(F)F)C1 [Example 489, 5-cyclopropyl-N-(cyclopropylsulfonyl)-2-fluoro-4-((3-methyl-1-(3-(trifluoromethyl)pyridin-4-yl)azetidin-3-yl)methoxy)benzamide, trifluoroacetic acid salt]	103
CS(=O)(=O)NC(=O)c1cc(C2CC2)c(O[C@@H]2CCCN(c3ccc(C(F)(F)F)cn3)C2)cc1F [Example 490, (R)-5-cyclopropyl-2-fluoro-N-(methylsulfonyl)-4-((1-(5-trifluoromethyl)pyridin-2-yl)piperidin-3-yl)oxy)benzamide, trifluoroacetic acid salt]	42.3
O=C(NS(=O)(=O)C1CC1)c1cc(C2CC2)c(O[C@@H]2CCCN(c3ccc(C(F)(F)F)cn3)C2)cc1F [Example 491, (R)-5-cyclopropyl-N-(cyclopropylsulfonyl)-2-fluoro-4-((1-(5-(trifluoromethyl)pyridin-2-yl)piperidin-3-yl)oxy)benzamide, trifluoroacetic acid salt]	28.3
O=C(NS(=O)(=O)C1CC1)c1cc(C2CC2)c(CN2CCC(Oc3cccc(C(F)(F)F)c3)CC2)cc1F [Example 502, trifluoroacetic acid salt]	6.8

Further lines, results first:

IC50 [nM]	SMILES
93.8	O=C(NS(=O)(=O)C1CC1)c1cc(C2CC2)c(O[C@@H]2CCCN(c3ccccn3)C2)cc1F [Example 492, (R)-5-cyclopropyl-N-(cyclopropylsulfonyl)-2-fluoro-4-((1-(pyridin-2-yl)piperidin-3-yl)oxy)benzamide]
243	O=C(NS(=O)(=O)N1CCC1)c1cc(C2CC2)c(O[C@@H]2CCCN(c3ccccn3)C2)cc1F [Example 493, (R)—N-(azetidin-1-ylsulfonyl)-5-cyclopropyl-2-fluoro-4-((1-(pyridin-2-yl)piperidin-3-yl)oxy)benzamide]
52.7	O=C(NS(=O)(=O)C1CC1)c1cc(C2CC2)c(O[C@@H]2CCCN(c3ccc(F)cn3)C2)cc1F [Example 494, (R)-5-cyclopropyl-N-(cyclopropylsulfonyl)-2-fluoro-4-((1-(5-fluoropyridin-2-yl)piperidin-3-yl)oxy)benzamide, trifluoroacetic acid salt]

Same assay, conditions: read-out: Ligand Binding Assay; 100 pM [3H]compound, membranes with hNav1.7 and β1 subunit, 18 h, room temperature; trifluoroacetic acid salt

SMILES	IC50 [nM]
O=C(NS(=O)(=O)C1CC1)c1cc(C2CC2)c(CN2CCC(Oc3ccc(F)cc3Cl)CC2)cc1F [Example 506, trifluoroacetic acid salt]	14.3
O=C(NS(=O)(=O)C1CC1)c1cc(C2CC2)c(CN2CCC(Oc3ccc(F)cc3Cl)CC2)cc1F [Example 507, trifluoroacetic acid salt]	81.7
